For this data set, the system named is HCC1143 p13 spheroid (TNBC, BL1 subtype, BRCA-1 wt). The experiment in a line: TNBC spheroid model, residual cell viability by standard ATP assay. The format is cell-based. As to conditions: for mean cell viability: mean of six repeats. Here is the method:
The activity of EDO-S101 alone and in combination was evaluated in triple negative breast cancer (TNBC) cells lines using a spheroid model.
Heterotypic tumour spheroids were prepared from the individual primary breast cancer tissue. The tumour samples were mechanically and enzymatically digested using an enzyme cocktail (Roche, Penzberg Germany), cell viability determined using the trypan-blue exclusion test, and spheroids seeded at a cell density of 50,000 using a modified liquid overlay method. After 48 h in cell culture under standard conditions, successful spheroid formation was documented photographically before starting treatment.
The spheroids were treated with EDO-S101 (5 μM, 10 μM) alone and in combination with carboplatin and/or the PARP inhibitor olaparib (Table 2) for different periods of time (48, 72 h). Solvent controls and an untreated (medium) control was used under the same culture conditions. Treatment efficacy of all drugs was analysed with a standard ATP assay.
The results are the mean of six repeats per treatment based on the results of the ATP assay.
HCC1143 cells are from the BL1 triple negative breast cancer subtype.

This passage reports mean cell viability and residual cell viability results from patent US12303492B2, “Compounds for treating TNBC” (Purdue Pharma L.P., priority 2017, dated 2025).

On to `N.N.O=C([O-])C1(C(=O)[O-])CCC1.[Pt+2]` [Carboplatin, reference compound], for which the mean cell viability is, setting by setting: (HCC1143 p13 spheroids, T48 h, control agents: carboplatin 40.84 μg/ml, paclitaxel 1.53 μg/ml, olaparib 6.6 μg/ml) 118.28 % solvent control; (HCC1143 spheroids, T72 h, control agents: carboplatin 40.84 μg/ml, paclitaxel 1.53 μg/ml, olaparib 6.6 μg/ml) 105.88 % solvent control.
In the case of `Cn1c(CCCCCCC(=O)NO)nc2cc(N(CCCl)CCCl)ccc21` [EDO-S101, 7-(5-(bis(2-chloroethyl)amino)-1-methyl-1H-benzo[d]imidazol-2-yl)-N-hydroxyheptanamide], the mean cell viability runs as follows: (HCC1143 p13 spheroids, T48 h, EDO S101 5 μM alone or with carboplatin 40.84 μg/ml and/or olaparib 6.6 μg/ml) 85.75 % solvent control; (HCC1143 p13 spheroids, T48 h, EDO S101 10 μM alone or with carboplatin 40.84 μg/ml and/or olaparib 6.6 μg/ml) 57.43 % solvent control; (HCC1143 spheroids, T72 h, EDO S101 5 μM alone or with carboplatin 40.84 μg/ml and/or olaparib 6.6 μg/ml) 79.99 % solvent control; (HCC1143 spheroids, T72 h, EDO S101 10 μM alone or with carboplatin 40.84 μg/ml and/or olaparib 6.6 μg/ml) 77.09 % solvent control. Besides, the residual cell viability is 86% (HCC1143 spheroids, after 48 h, EDO-S101 5 μm (alone or in combination)) and 57% (HCC1143 spheroids, after 48 h, EDO-S101 10 μm).
Consider `O=C(c1cc(Cc2n[nH]c(=O)c3ccccc23)ccc1F)N1CCN(C(=O)C2CC2)CC1` [Olaparib, reference compound], for which the residual cell viability (human, 72 h) stood at 62%.
